Test results published in ChEMBL document CHEMBL1201862, “PubChem BioAssay data set” (2004).
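Exposure lasted 48 hours, with cells grown in 96-well plates and compounds tested at five concentrations. GI50 is the concentration that inhibits growth by half.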 Activity calls are given as the source filed them. No stated cut-off is given here; in the data, active = GI50 up to about 1.1 µM and inactive = higher.

Legend:
Test in all cases: NCI-60 cell line screen, 48 h
Hs-578T = system: Hs-578T
SK-MEL-2 = system: SK-MEL-2
CAKI-1 = system: CAKI-1
EKVX = system: EKVX
DU-145 = system: DU-145
SNB-19 = system: SNB-19
A498 = system: A498
UACC-257 = system: UACC-257
MDA-N = system: MDA-N
BT-549 = system: BT-549
OVCAR-8 = system: OVCAR-8
SF-268 = system: SF-268
M14 = system: M14
786-0 = system: 786-0
UO-31 = system: UO-31
PC-3 = system: PC-3
OVCAR-5 = system: OVCAR-5
HCT-116 = system: HCT-116
NCI-H460 = system: NCI-H460
KM12 = system: KM12
SK-OV-3 = system: SK-OV-3
SR = system: SR
SF-539 = system: SF-539
HOP-62 = system: HOP-62
U-251 = system: U-251
NCI/ADR-RES = system: NCI/ADR-RES
HT-29 = system: HT-29
HL-60 = system: HL-60
SK-MEL-5 = system: SK-MEL-5
RPMI-8226 = system: RPMI-8226
ACHN = system: ACHN
SF-295 = system: SF-295
MDA-MB-435 = system: MDA-MB-435
UACC-62 = system: UACC-62
HCT-15 = system: HCT-15
CCRF-CEM = system: CCRF-CEM
Malme-3M = system: Malme-3M
SK-MEL-28 = system: SK-MEL-28
IGROV-1 = system: IGROV-1
K562 = system: K562
OVCAR-4 = system: OVCAR-4
OVCAR-3 = system: OVCAR-3
MCF7 = system: MCF7
HCC 2998 = system: HCC 2998
LOX IMVI = system: LOX IMVI
SW-620 = system: SW-620
COLO 205 = system: COLO 205
NCI-H23 = system: NCI-H23
NCI-H522 = system: NCI-H522
MOLT-4 = system: MOLT-4
A549 = system: A549
TK-10 = system: TK-10
T47D = system: T47D
RXF 393 = system: RXF 393
NCI-H226 = system: NCI-H226
SN12C = system: SN12C
HOP-92 = system: HOP-92
SNB-75 = system: SNB-75
MDA-MB-231 = system: MDA-MB-231

Compound: O=c1oc2ccc3ccccc3c2cc1-c1nnc(-c2ccc([N+](=O)[O-])cc2)[nH]1
- GI50 (Hs-578T): 11.5 µM (inactive)
- GI50 (SK-MEL-2): 44.6 µM (inactive)
- GI50 (CAKI-1): > 100 µM (inactive)
- GI50 (EKVX): 20.7 µM (inactive)
- GI50 (DU-145): 87.3 µM (inactive)
- GI50 (SNB-19): 32.8 µM (inactive)
- GI50 (A498): 53.6 µM (inactive)
- GI50 (UACC-257): > 100 µM (inactive)
- GI50 (MDA-N): > 100 µM (inactive)
- GI50 (BT-549): 21.3 µM (inactive)
- GI50 (OVCAR-8): 21.4 µM (inactive)
- GI50 (SF-268): 0.0807 µM (active)
- GI50 (M14): > 100 µM (inactive)
- GI50 (786-0): 41.1 µM (inactive)
- GI50 (UO-31): 53.1 µM (inactive)
- GI50 (PC-3): > 100 µM (inactive)
- GI50 (OVCAR-5): > 100 µM (inactive)
- GI50 (HCT-116): > 100 µM (inactive)
- GI50 (NCI-H460): > 100 µM (inactive)
- GI50 (KM12): > 100 µM (inactive)
- GI50 (SK-OV-3): 23.6 µM (inactive)
- GI50 (SR): > 100 µM (inactive)
- GI50 (SF-539): 18.7 µM (inactive)
- GI50 (HOP-62): 17.2 µM (inactive)
- GI50 (U-251): 29.6 µM (inactive)
- GI50 (NCI/ADR-RES): > 100 µM (inactive)
- GI50 (HT-29): > 100 µM (inactive)
- GI50 (HL-60): > 100 µM (inactive)
- GI50 (SK-MEL-5): > 100 µM (inactive)
- GI50 (RPMI-8226): > 100 µM (inactive)
- GI50 (ACHN): 42.2 µM (inactive)
- GI50 (SF-295): 36.6 µM (inactive)
- GI50 (MDA-MB-435): > 100 µM (inactive)
- GI50 (UACC-62): > 100 µM (inactive)
- GI50 (HCT-15): > 100 µM
- GI50 (CCRF-CEM): > 100 µM (inactive)
- GI50 (Malme-3M): 91.2 µM (inactive)
- GI50 (SK-MEL-28): > 100 µM (inactive)
- GI50 (IGROV-1): 0.184 µM (active)
- GI50 (K562): > 100 µM (inactive)
- GI50 (OVCAR-4): > 100 µM (inactive)
- GI50 (OVCAR-3): > 100 µM (inactive)
- GI50 (MCF7): > 100 µM (inactive)
- GI50 (HCC 2998): > 100 µM (inactive)
- GI50 (LOX IMVI): 38.8 µM (inactive)
- GI50 (SW-620): > 100 µM (inactive)
- GI50 (COLO 205): > 100 µM (inactive)
- GI50 (NCI-H23): 17.7 µM (inactive)
- GI50 (NCI-H522): 92 µM (inactive)
- GI50 (MOLT-4): 71.4 µM (inactive)
- GI50 (A549): > 100 µM (inactive)

Compound: C/C(=N\Nc1nc2ccccc2[nH]1)c1ccncn1
- GI50 (Hs-578T): 80 µM (inactive)
- GI50 (SK-MEL-2): 0.617 µM (active)
- GI50 (CAKI-1): 0.123 µM (active)
- GI50 (TK-10): 3.43 µM (inactive)
- GI50 (EKVX): 0.133 µM (active)
- GI50 (DU-145): 0.0843 µM (active)
- GI50 (SNB-19): 0.246 µM (active)
- GI50 (A498): 0.237 µM (active)
- GI50 (UACC-257): 1.41 µM (inactive)
- GI50 (MDA-N): 0.698 µM (active)
- GI50 (OVCAR-8): 0.124 µM (active)
- GI50 (SF-268): 0.0879 µM (active)
- GI50 (T47D): 0.103 µM (active)
- GI50 (RXF 393): 0.413 µM (active)
- GI50 (M14): 0.0951 µM (active)
- GI50 (786-0): 0.0693 µM (active)
- GI50 (NCI-H226): 0.0817 µM (active)
- GI50 (UO-31): 0.114 µM (active)
- GI50 (PC-3): 2.61 µM (inactive)
- GI50 (OVCAR-5): 4.11 µM (inactive)
- GI50 (HCT-116): 0.113 µM (active)
- GI50 (NCI-H460): 0.0914 µM (active)
- GI50 (KM12): 0.27 µM (active)
- GI50 (SK-OV-3): 0.49 µM (active)
- GI50 (SN12C): 0.275 µM (active)
- GI50 (SR): 0.0811 µM (active)
- GI50 (SF-539): 0.0394 µM (active)
- GI50 (HOP-62): 0.0951 µM (active)
- GI50 (U-251): 0.147 µM (active)
- GI50 (NCI/ADR-RES): 0.153 µM (active)
- GI50 (HOP-92): 0.0715 µM (active)
- GI50 (HT-29): 0.0818 µM (active)
- GI50 (HL-60): 0.0183 µM (active)
- GI50 (SK-MEL-5): 0.157 µM (active)
- GI50 (RPMI-8226): 0.196 µM (active)
- GI50 (ACHN): 0.0441 µM (active)
- GI50 (SF-295): 0.115 µM (active)
- GI50 (MDA-MB-435): 0.154 µM (active)
- GI50 (UACC-62): 0.0764 µM (active)
- GI50 (HCT-15): 0.161 µM
- GI50 (CCRF-CEM): 0.0776 µM (active)
- GI50 (Malme-3M): 0.138 µM (active)
- GI50 (SK-MEL-28): 0.396 µM (active)
- GI50 (IGROV-1): 0.103 µM (active)
- GI50 (K562): 0.681 µM (active)
- GI50 (OVCAR-4): 0.324 µM (active)
- GI50 (OVCAR-3): 0.25 µM (active)
- GI50 (MCF7): 0.152 µM (active)
- GI50 (HCC 2998): 18.5 µM (inactive)
- GI50 (LOX IMVI): 0.0942 µM (active)
- GI50 (SW-620): 0.134 µM (active)
- GI50 (COLO 205): 0.128 µM (active)
- GI50 (SNB-75): 0.352 µM (active)
- GI50 (MDA-MB-231): 3.64 µM (inactive)
- GI50 (NCI-H23): 0.0973 µM (active)
- GI50 (NCI-H522): 0.104 µM (active)
- GI50 (MOLT-4): 0.17 µM (active)
- GI50 (A549): 0.151 µM (active)

Compound: CC(C(=O)O)c1ccc(-c2ccccc2)c(F)c1 (centres undefined) [TARENFLURBIL]
- GI50 (Hs-578T): > 100 µM (inactive)
- GI50 (SK-MEL-2): > 100 µM (inactive)
- GI50 (EKVX): > 100 µM (inactive)
- GI50 (MDA-N): > 100 µM (inactive)
- GI50 (BT-549): > 100 µM (inactive)
- GI50 (SF-268): > 100 µM (inactive)
- GI50 (NCI-H226): > 100 µM (inactive)
- GI50 (UO-31): > 100 µM (inactive)
- GI50 (SN12C): > 100 µM (inactive)
- GI50 (SF-539): > 100 µM (inactive)
- GI50 (HOP-62): > 100 µM (inactive)
- GI50 (HL-60): > 100 µM (inactive)
- GI50 (MDA-MB-435): > 100 µM (inactive)
- GI50 (HCT-15): > 100 µM
- GI50 (Malme-3M): > 100 µM (inactive)
- GI50 (SK-MEL-28): > 100 µM (inactive)
- GI50 (MCF7): > 100 µM (inactive)
- GI50 (SNB-75): > 100 µM (inactive)
- GI50 (NCI-H522): > 100 µM (inactive)
- GI50 (A549): > 100 µM (inactive)
